Reference: US8940768B2, “Antifungal triazole derivatives” (Daewoong Pharmaceutical Co., Ltd., priority 2010, dated 2015)
In brackets after ≈: the same amount, converted by molar mass. Read-outs that look alike come from different tables or passages of the source.

Columns and labels:
Format in all cases: cell-based
[1] = tested on: Candida albicans; test: in vitro antifungal activity (MIC80), Candida albicans; conditions: 80% growth inhibition vs negative control, RPMI 1640, read 24 hrs after application
Description: (§1) The compounds of the present invention were evaluated for inhibitory activity against yeast molds including Candida albicans, Candida glabrata, Candida krusei, Candida tropicalis, Candida parapsilosis, and Cryptococcus neoformans, and filamentous fungi including Aspergillus fumigatus, Trichophyton mentagrophytes (obtained from KCTC (Korean Collection for Type Cultures), and Trichophyton rubrum (obtained from KCCM (Korean Culture Center of Microorganisms). All the strains, but Trichophyton mentagrophytes and Trichophyton rubrum, were purchased from the ATCC (American Type Culture Collection).
(§2) Of the strains used in this test, Candida albicans, Candida glabrata, Candida krusei, Candida tropicalis, Candida parapsilosis, Trichophyton mentagrophytes and Trichophyton rubrum were inoculated into sabouraud dextrose agars (Difco, BD-0109), Cryptococcus neoformans into a yeast mold agar (YM agar, Difco, 271210), and Aspergillus fumigatus into a malt extract agar (Difco, 211220), before incubation at 35° C. for two to ten days.
(§3) From the agars on which the yeast molds were grown, single colonies were picked up, and each was sufficiently suspended in 5 mL of already prepared, 0.85% sterile saline. After correction of the absorbance to 0.108 at 530 nm, each of the suspensions was diluted to a ratio of 1:50 in an RPMI (Roswell park memorial institute) 1640 medium and then to a ratio of 1:20 to prepare an inoculum having a cell density of from 1.0×10^3 to 5.0×10^3CFU/mL. The cell density was adjusted into […]˜5.0×10^4 CFU/mL for Aspergillus fumigates and 0.4×10^4˜5.0×10^4 CFU/mL for both Trichophyton mentagrophytes and Trichophyton rubrum.
(§4) The antifungal agent samples were prepared by diluting the active compounds in an RPMI 1640 medium to a serial density of from 0.0156 to 32 μg/mL. In this context, dimethylsulfoxide (DMSO) was used as an excipient at a final concentration of 1% (v/v). The serial dilutions were aliquoted at a volume of 0.1 mL and applied to 0.1 mL of the aliquots of each inoculum, followed by incubation.
(§5) With the naked eyes, an observation was made of all of the yeast molds, but Cryptococcus neoformans 24 hrs after the application, Cryptococcus neoformans and Aspergillus fumigatus 48 hrs after the application, and Trichophyton mentagrophytes and Trichophyton rubrum five days after the application to examine whether the fungi grew or not. In addition, Alamarblue™ as used to determine the concentrations of the compounds of the present invention at which the growth of the microorganisms was 80% inhibited compared to that of the negative control. All experiments were performed in duplicate for each of the test concentration groups.

[2] = tested on: Candida glabrata; test: in vitro antifungal activity (MIC80), Candida glabrata; conditions: Nakaseomyces glabratus, 24 h, read-out: Antifungal Activity (MIC80) C. grabrata
Description: as §1, §2, §3, §4, §5

[3] = tested on: Candida krusei; test: in vitro antifungal activity (MIC80), Candida krusei; conditions: Pichia kudriavzevii; 80% growth inhibition vs negative control; RPMI 1640; read 24 hrs after application; read-out: Antifungal Activity (MIC80) C. krusei
Description: as §1, §2, §3, §4, §5

[4] = tested on: Candida tropicalis; test: in vitro antifungal activity (MIC80), Candida tropicalis; conditions: 80% growth inhibition vs negative control, RPMI 1640, read 24 hrs after application, read-out: Antifungal Activity (MIC80) C. tropicalis
Description: as §1, §2, §3, §4, §5

[5] = tested on: Candida parapsilosis; test: in vitro antifungal activity (MIC80), Candida parapsilosis; conditions: Lodderomyces parapsilosis; 80% growth inhibition vs negative control; RPMI 1640; read 24 hrs after application; read-out: Antifungal Activity (MIC80) C. parapsilosis
Description: as §1, §2, §3, §4, §5

[6] = tested on: Cryptococcus neoformans; test: in vitro antifungal activity (MIC80), Cryptococcus neoformans; conditions: 80% growth inhibition vs negative control, RPMI 1640, read 48 hrs after application
Description: as §1, §2, §3, §4, §5

[7] = tested on: Aspergillus fumigatus; test: in vitro antifungal activity (MIC80), Aspergillus fumigatus; conditions: 80% growth inhibition vs negative control, RPMI 1640, read 48 hrs after application
Description: as §1, §2, §3, §4, §5

[8] = tested on: Trichophyton mentagrophytes; test: in vitro antifungal activity (MIC80), Trichophyton mentagrophytes; conditions: 120 h, 80% growth inhibition vs negative control, RPMI 1640, read five days after application
Description: as §1, §2, §3, §4, §5

[9] = tested on: Trichophyton rubrum; test: in vitro antifungal activity (MIC80), Trichophyton rubrum; conditions: 120 h, 80% growth inhibition vs negative control, RPMI 1640, read five days after application
Description: as §1, §2, §3, §4, §5

[10] = Table 1, read-out: Antifungal Activity (MIC80) C. albicans
[11] = Table 2, read-out: Antifungal Activity (MIC80) Candida albicans

Structure (SMILES): C[C@@H](N1CCC(Nc2ccc(Cl)cc2)CC1)[C@](O)(Cn1cncn1)c1ccc(F)cc1F [Example 34, (2R,3R)-3-(4-((4-chlorophenyl)amino)piperidin-1-yl)-2-(2,4-difluorophenyl)-1-(1H-1,2,4-triazol-1-yl)butan-2-ol]
- MIC80 [1, 10]: ≤ 0.015 mg/L
- MIC80 [2]: 0.125 mg/L (≈ 0.271 µM)
- MIC80 [3]: 0.031 mg/L (≈ 0.0671 µM)
- MIC80 [4]: ≤ 0.015 mg/L
- MIC80 [5]: ≤ 0.015 mg/L
- MIC80 [6]: ≤ 0.015 mg/L
- MIC80 [7]: ≤ 0.125 mg/L
- MIC80 [8]: ≤ 0.125 mg/L
- MIC80 [9]: ≤ 0.125 mg/L

Structure (SMILES): C[C@@H](N1CCC(Oc2ccc(C(F)(F)F)cc2)CC1)[C@](O)(Cn1cncn1)c1ccc(F)cc1F [Example 13, (2R,3R)-2-(2,4-difluorophenyl)-1-(1H-1,2,4-triazol-1-yl)-3-(4-(4-(trifluoromethyl)phenoxy)piperidin-1-yl)butan-2-ol]
- MIC80 [1, 10]: ≤ 0.015 mg/L
- MIC80 [7]: 1 mg/L (≈ 2.01 µM)

Structure (SMILES): C[C@@H](NC1CCN(c2ccc(F)cc2)CC1)[C@](O)(Cn1cncn1)c1ccc(F)cc1F [Example 125, (2R,3R)-2-(2,4-difluorophenyl)-3-((1-(4-fluorophenyl)piperidin-4-yl)amino)-1-(1H-1,2,4-triazol-1-yl)butan-2-ol]
- MIC80 [1, 10]: ≤ 0.015 mg/L
- MIC80 [2]: 0.125 mg/L (≈ 0.281 µM)
- MIC80 [3]: 0.062 mg/L (≈ 0.139 µM)
- MIC80 [4]: 0.031 mg/L (≈ 0.0696 µM)
- MIC80 [5]: ≤ 0.015 mg/L
- MIC80 [6]: ≤ 0.015 mg/L
- MIC80 [7]: 0.25 mg/L (≈ 0.561 µM)
- MIC80 [8]: ≤ 0.125 mg/L
- MIC80 [9]: ≤ 0.125 mg/L

Structure (SMILES): C[C@@H](N1CCC(Nc2ccc(F)cn2)CC1)[C@](O)(Cn1cncn1)c1ccc(F)cc1F [Example 58, (2R,3R)-2-(2,4-difluorophenyl)-3-(4-((5-fluoropyridin-2-yl)amino)piperidin-1-yl)-1-(1H-1,2,4-triazol-1-yl)butan-2-ol]
- MIC80 [1, 10]: ≤ 0.015 mg/L
- MIC80 [2]: 1 mg/L (≈ 2.24 µM)
- MIC80 [3]: 0.062 mg/L (≈ 0.139 µM)
- MIC80 [4]: 0.125 mg/L (≈ 0.28 µM)
- MIC80 [5]: 0.062 mg/L (≈ 0.139 µM)
- MIC80 [7]: 0.125 mg/L (≈ 0.28 µM)
- MIC80 [8]: ≤ 0.125 mg/L
- MIC80 [9]: ≤ 0.125 mg/L

Structure (SMILES): C[C@@H](N1CCC(Nc2ncc(F)cn2)CC1)[C@](O)(Cn1cncn1)c1ccc(F)cc1F [Example 63, (2R,3R)-2-(2,4-difluorophenyl)-3-(4-((5-fluoropyrimidin-2-yl)amino)piperidin-1-yl)-1-(1H-1,2,4-triazol-1-yl)butan-2-ol]
- MIC80 [1, 10]: ≤ 0.015 mg/L
- MIC80 [2]: 1 mg/L (≈ 2.23 µM)
- MIC80 [3]: ≤ 0.062 mg/L
- MIC80 [7]: 0.25 mg/L (≈ 0.559 µM)
- MIC80 [8]: ≤ 0.004 mg/L
- MIC80 [9]: 0.015 mg/L (≈ 0.0335 µM)

Structure (SMILES): Cc1cc(C(F)(F)F)cnc1N1CCC(N[C@H](C)[C@](O)(Cn2cncn2)c2ccc(F)cc2F)CC1 [Example 148, (2R,3R)-2-(2,4-difluorophenyl)-3-((1-(3-methyl-5-(trifluoromethyl)pyridin-2-yl)piperidin-4-yl)amino)-1-(1H-1,2,4-triazol-1-yl)butan-2-ol]
- MIC80 [1, 10]: ≤ 0.015 mg/L
- MIC80 [2]: 0.25 mg/L (≈ 0.49 µM)
- MIC80 [3]: ≤ 0.062 mg/L
- MIC80 [7]: 1 mg/L (≈ 1.96 µM)

Structure (SMILES): C[C@@H](NC1CCN(c2ncc(F)cn2)CC1)[C@](O)(Cn1cncn1)c1ccc(F)cc1F [Example 151, (2R,3R)-2-(2,4-difluorophenyl)-3-((1-(5-fluoropyrimidin-2-yl)piperidin-4-yl)-amino)-1-(1H-1,2,4-triazol-1-yl)butan-2-ol]
- MIC80 [1, 10]: ≤ 0.015 mg/L
- MIC80 [2]: 1 mg/L (≈ 2.23 µM)
- MIC80 [3]: 0.25 mg/L (≈ 0.559 µM)
- MIC80 [4]: 0.25 mg/L (≈ 0.559 µM)
- MIC80 [5]: 0.125 mg/L (≈ 0.279 µM)
- MIC80 [7]: 1 mg/L (≈ 2.23 µM)
- MIC80 [8]: ≤ 0.004 mg/L
- MIC80 [9]: 0.015 mg/L (≈ 0.0335 µM)

Structure (SMILES): C[C@@H](N1CCC(Oc2ccc(Cl)cn2)CC1)[C@](O)(Cn1cncn1)c1ccc(F)cc1F [Example 26, (2R,3R)-3-(4-((5-chloropyridin-2-yl)oxy)piperidin-1-yl)-2-(2,4-difluorophenyl)-1-(1H-1,2,4-triazol-1-yl)butan-2-ol]
- MIC80 [1, 11]: ≤ 0.015 mg/L

Structure (SMILES): C[C@@H](N1CCC(Oc2ccc(Cl)cc2)CC1)[C@](O)(Cn1cncn1)c1ccc(F)cc1F [Example 7, (2R,3R)-3-(4-(4-chlorophenoxy)piperidin-1-yl)-2-(2,4-difluorophenyl)-1-(1H-1,2,4-triazol-1-yl)butan-2-ol]
- MIC80 [1, 10]: ≤ 0.015 mg/L
- MIC80 [7]: ≤ 0.125 mg/L

Structure (SMILES): C[C@@H](N1CCC(N(C)c2ccc(Cl)cc2)CC1)[C@](O)(Cn1cncn1)c1ccc(F)cc1F [Example 73, (2R,3R)-3-(4-((4-chlorophenyl)(methyl)amino)piperidin-1-yl)-2-(2,4-difluorophenyl)-1-(1H-1,2,4-triazol-1-yl)butan-2-ol]
- MIC80 [1, 11]: ≤ 0.015 mg/L

Structure (SMILES): C[C@@H](OC1CCN(c2ccc(C(F)(F)F)cc2)CC1)[C@](O)(Cn1cncn1)c1ccc(F)cc1F [Example 102, (2R,3R)-2-(2,4-difluorophenyl)-1-(1H-1,2,4-triazol-1-yl)-3-((1-(4-(trifluoromethyl)phenyl)piperidin-4-yl)oxy)butan-2-ol]
- MIC80 [1, 11]: ≤ 0.015 mg/L

Structure (SMILES): C[C@@H](OC1CCN(c2ccc(Cl)cc2)CC1)[C@](O)(Cn1cncn1)c1ccc(F)cc1F [Example 96, (2R,3R)-3-((1-(4-chlorophenyl)piperidin-4-yl)oxy)-2-(2,4-difluorophenyl)-1-(1H-1,2,4-triazol-1-yl)butan-2-ol]
- MIC80 [1, 11]: ≤ 0.015 mg/L

Structure (SMILES): C[C@@H](OC1CCN(c2ccc(F)cn2)CC1)[C@](O)(Cn1cncn1)c1ccc(F)cc1F [Example 114, (2R,3R)-2-(2,4-difluorophenyl)-3-((1-(5-fluoropyridin-2-yl)piperidin-4-yl)oxy)-1-(1H-1,2,4-triazol-1-yl)butan-2-ol]
- MIC80 [1, 11]: ≤ 0.015 mg/L

Structure (SMILES): C[C@@H](NC1CCN(c2ccc(C(F)(F)F)cc2)CC1)[C@](O)(Cn1cncn1)c1ccc(F)cc1F [Example 134, (2R,3R)-2-(2,4-difluorophenyl)-1-(1H-1,2,4-triazol-1-yl)-3-((1-(4-(trifluoromethyl)phenyl)piperidin-4-yl)amino)butan-2-ol]
- MIC80 [1, 11]: ≤ 0.015 mg/L

Structure (SMILES): C[C@@H](N1CCC(Nc2ccccc2)CC1)[C@](O)(Cn1cncn1)c1ccc(F)cc1F [Example 35, (2R,3R)-2-(2,4-difluorophenyl)-3-(4-(phenylamino)piperidin-1-yl)-1-(1H-1,2,4-triazol-1-yl)butan-2-ol]
- MIC80 [1, 11]: ≤ 0.015 mg/L

Structure (SMILES): C[C@@H](N1CCC(Nc2ncc(C(F)(F)F)cc2Cl)CC1)[C@](O)(Cn1cncn1)c1ccc(F)cc1F [Example 60, (2R,3R)-3-(4-((3-chloro-5-(trifluoromethyl)pyridin-2-yl)amino)piperidin-1-yl)-2-(2,4-difluorophenyl)-1-(1H-1,2,4-triazol-1-yl)butan-2-ol]
- MIC80 [1, 11]: ≤ 0.015 mg/L

Structure (SMILES): C[C@@H](N1CCC(Nc2ccc(F)cc2)CC1)[C@](O)(Cn1cncn1)c1ccc(F)cc1F [Example 38, (2R,3R)-2-(2,4-difluorophenyl)-3-(4-((4-fluorophenyl)amino)piperidin-1-yl)-1-(1H-1,2,4-triazol-1-yl)butan-2-ol]
- MIC80 [1, 11]: ≤ 0.015 mg/L

Structure (SMILES): C[C@@H](NC1CCN(c2ccc(F)cn2)CC1)[C@](O)(Cn1cncn1)c1ccc(F)cc1F [Example 146, (2R,3R)-2-(2,4-difluorophenyl)-3-((1-(5-fluoropyridin-2-yl)piperidin-4-yl)amino)-1-(1H-1,2,4-triazol-1-yl)butan-2-ol]
- MIC80 [1, 11]: ≤ 0.015 mg/L

Structure (SMILES): C[C@@H](N1CCC(N(C)c2ccc(F)cc2)CC1)[C@](O)(Cn1cncn1)c1ccc(F)cc1F [Example 70, (2R,3R)-2-(2,4-difluorophenyl)-3-(4-((4-fluorophenyl)(methyl)amino)piperidin-1-yl)-1-(1H-1,2,4-triazol-1-yl)butan-2-ol]
- MIC80 [1, 11]: ≤ 0.015 mg/L

Structure (SMILES): C[C@@H](OC1CCN(c2ncc(F)cn2)CC1)[C@](O)(Cn1cncn1)c1ccc(F)cc1F [Example 118, (2R,3R)-2-(2,4-difluorophenyl)-3-((1-(5-fluoropyrimidin-2-yl)piperidin-4-yl)oxy)-1-(1H-1,2,4-triazol-1-yl)butan-2-ol]
- MIC80 [1, 11]: ≤ 0.015 mg/L
